The text below walks through data of patent US20260001875A1, “AMINOPYRIMIDINYL DERIVATIVES FOR THE TREATMENT OF PARKINSON'S DISEASE” (UNIVERSITY OF DUNDEE, priority 2022, published 2026).

Read-outs that look alike come from different tables or passages of the source.

Experiment [1] addresses T1, LRRK2^G2019S (Mus musculus, UniProt Q5S006, G2019S).
T1 construct: endogenous in cells; host or cells: LRRK2[G2019S] mouse embryonic fibroblasts (MEFs)
As to the kind of experiment: Western blot LRRK2 degradation in LRRK2^G2019S MEFs. As to conditions: dose response. The format is cell-based. A general note: Immunoblotting shows a protein as a band on a membrane.

In experiment [2] the target is T1, LRRK2^G2019S. The description is as above. The format is cell-based.
The target in the next experiment is LRRK2 (Homo sapiens, UniProt Q5S007). The experiment is described as follows: NanoBRET LRRK2 target engagement in HEK293 cells. It counts as binding. Further details: host or cells: HEK293. The note with it: for IC50: read-out: IC50 LRRK2 tracer displacement. As for the experimental part:
For VHL and LRRK2 target engagement experiments in live and permeabilized cells, the HEK293 cells were transfected with VHL-NanoLuc fusion vector (Promega, N275A) or LRRK2-NanoLuc fusion vector (Promega, NV3401) following Promega's protocol and seeded into white 384-well plate (Corning3570) at a density of 6000 cells/well. To measure NanoBRET in permeabilized cells, the cells were treated with 50 μg/mL digitonin (Sigma, D141), 125 nM VHL tracer/125 nM LRRK2 tracer, testing compounds at decreasing concentrations (12 concentrations with 2-fold serial dilution starting from 33 μM), and NanoBRET NanoGlo Substrate (Promega) at concentration recommended by the manufacturer's protocol. In the maximum signal control samples (DMSO control), DMSO was added instead of testing compounds. In the minimum signal control samples (no tracer control), DMSO and tracer dilution buffer were used to replace testing compounds and tracer separately. The filtered luminescence was measured within 10 min following addition of the substrate on a GloMax Discover microplate reader (Promega) or a PHERAstar (BMG LABTECH) plate reader equipped with a 450-nm bandpass filter (donor) and a 600-nm long pass filter (acceptor). To measure NanoBRET in live cells, the cells were treated with 250 nM VHL tracer/500 nM LRRK2 tracer, testing compounds at testing compounds at decreasing concentrations (12 concentrations with 2-fold serial dilution starting from 33 μM) and incubated at 37° C. in an incubator for 2 h. The plates were then cooled down and added with NanoBRET NanoGlo Substrate and Extracellular NanoLuc Inhibitor (Promega, N2160) before performing the same NanoBRET reading as the permeabilized mode on plate readers. NanoBRET ratio of each well was expressed in milliBRET according to the equation: mBRET=[(signal at […]/signal at 450 nM)−(signal at 610 nMno tracer control/signal at 450 nMno tracer control)]×1000. The fractional occupancy was calculated according to the equation: fractional occupancy=(mBRETtesting compound−mBRETno tracer control)/(mBRETDMSO control−mBRETno tracer control).
For orientation: Bioluminescence resonance energy transfer reports proximity on the nanometre scale.

Chain of LRRK2 (Q5S007 whole entry, the tested form may be a part): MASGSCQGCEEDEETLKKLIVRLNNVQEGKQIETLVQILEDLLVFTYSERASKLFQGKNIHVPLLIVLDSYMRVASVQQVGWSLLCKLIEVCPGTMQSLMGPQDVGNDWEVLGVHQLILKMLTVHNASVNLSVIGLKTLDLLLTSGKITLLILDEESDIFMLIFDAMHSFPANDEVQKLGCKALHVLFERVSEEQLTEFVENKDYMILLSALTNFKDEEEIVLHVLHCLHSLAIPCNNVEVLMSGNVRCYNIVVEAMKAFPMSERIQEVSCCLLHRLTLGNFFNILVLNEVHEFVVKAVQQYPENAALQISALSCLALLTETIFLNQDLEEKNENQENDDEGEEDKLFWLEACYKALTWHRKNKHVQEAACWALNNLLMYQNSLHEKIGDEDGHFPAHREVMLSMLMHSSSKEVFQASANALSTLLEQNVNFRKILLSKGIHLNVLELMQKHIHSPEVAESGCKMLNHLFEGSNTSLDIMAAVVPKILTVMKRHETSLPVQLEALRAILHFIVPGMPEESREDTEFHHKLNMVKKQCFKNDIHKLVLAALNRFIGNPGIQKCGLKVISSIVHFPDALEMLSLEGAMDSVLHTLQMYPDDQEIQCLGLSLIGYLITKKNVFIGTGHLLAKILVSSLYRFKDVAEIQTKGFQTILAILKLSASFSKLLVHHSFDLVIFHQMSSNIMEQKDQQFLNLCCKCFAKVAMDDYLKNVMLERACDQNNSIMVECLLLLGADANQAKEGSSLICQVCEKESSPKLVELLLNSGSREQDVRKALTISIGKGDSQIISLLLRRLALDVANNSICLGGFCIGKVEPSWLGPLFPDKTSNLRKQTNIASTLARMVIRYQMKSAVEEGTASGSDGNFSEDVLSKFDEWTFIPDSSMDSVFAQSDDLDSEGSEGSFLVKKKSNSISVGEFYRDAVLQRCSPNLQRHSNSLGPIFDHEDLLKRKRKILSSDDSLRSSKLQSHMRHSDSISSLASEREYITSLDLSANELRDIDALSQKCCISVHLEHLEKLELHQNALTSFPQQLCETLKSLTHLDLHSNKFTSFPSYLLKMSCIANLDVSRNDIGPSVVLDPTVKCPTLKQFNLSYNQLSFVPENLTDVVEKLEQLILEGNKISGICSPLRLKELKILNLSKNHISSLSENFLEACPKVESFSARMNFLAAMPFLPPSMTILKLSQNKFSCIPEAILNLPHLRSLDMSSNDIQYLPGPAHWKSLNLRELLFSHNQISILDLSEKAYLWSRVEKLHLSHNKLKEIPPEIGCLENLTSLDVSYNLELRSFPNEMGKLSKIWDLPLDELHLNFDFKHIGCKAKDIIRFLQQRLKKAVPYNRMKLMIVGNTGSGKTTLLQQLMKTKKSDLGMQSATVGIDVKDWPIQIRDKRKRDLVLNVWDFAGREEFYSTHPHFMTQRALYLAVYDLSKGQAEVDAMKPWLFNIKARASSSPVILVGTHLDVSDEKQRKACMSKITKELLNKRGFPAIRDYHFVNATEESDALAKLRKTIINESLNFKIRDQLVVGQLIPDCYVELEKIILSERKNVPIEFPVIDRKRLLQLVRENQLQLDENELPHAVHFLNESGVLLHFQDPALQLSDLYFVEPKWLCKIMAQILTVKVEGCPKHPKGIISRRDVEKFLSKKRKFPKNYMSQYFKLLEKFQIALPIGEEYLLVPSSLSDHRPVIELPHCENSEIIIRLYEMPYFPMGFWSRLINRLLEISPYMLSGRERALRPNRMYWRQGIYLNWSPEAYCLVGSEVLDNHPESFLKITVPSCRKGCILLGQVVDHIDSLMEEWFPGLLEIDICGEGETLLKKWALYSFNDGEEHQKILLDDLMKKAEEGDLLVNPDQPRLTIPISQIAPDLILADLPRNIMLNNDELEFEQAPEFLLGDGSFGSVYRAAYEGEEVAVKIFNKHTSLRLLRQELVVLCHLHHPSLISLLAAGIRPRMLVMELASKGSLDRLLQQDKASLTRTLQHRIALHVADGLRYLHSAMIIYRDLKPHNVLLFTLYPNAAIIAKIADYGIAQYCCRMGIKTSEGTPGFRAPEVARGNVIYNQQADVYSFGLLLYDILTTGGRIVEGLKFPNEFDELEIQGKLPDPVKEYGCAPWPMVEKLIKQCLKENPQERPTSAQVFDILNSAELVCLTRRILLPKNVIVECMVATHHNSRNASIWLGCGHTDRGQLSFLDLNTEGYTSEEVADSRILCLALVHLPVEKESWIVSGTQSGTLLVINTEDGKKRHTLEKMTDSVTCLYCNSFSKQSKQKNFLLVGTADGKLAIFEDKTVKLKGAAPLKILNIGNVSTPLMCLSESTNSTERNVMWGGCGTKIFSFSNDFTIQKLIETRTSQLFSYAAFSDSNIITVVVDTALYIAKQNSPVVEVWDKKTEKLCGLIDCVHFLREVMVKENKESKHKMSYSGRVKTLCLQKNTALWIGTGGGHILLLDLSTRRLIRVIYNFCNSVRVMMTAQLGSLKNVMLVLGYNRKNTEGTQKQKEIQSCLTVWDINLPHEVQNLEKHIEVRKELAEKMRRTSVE
T1 sequence (Q5S006 whole entry G2019S): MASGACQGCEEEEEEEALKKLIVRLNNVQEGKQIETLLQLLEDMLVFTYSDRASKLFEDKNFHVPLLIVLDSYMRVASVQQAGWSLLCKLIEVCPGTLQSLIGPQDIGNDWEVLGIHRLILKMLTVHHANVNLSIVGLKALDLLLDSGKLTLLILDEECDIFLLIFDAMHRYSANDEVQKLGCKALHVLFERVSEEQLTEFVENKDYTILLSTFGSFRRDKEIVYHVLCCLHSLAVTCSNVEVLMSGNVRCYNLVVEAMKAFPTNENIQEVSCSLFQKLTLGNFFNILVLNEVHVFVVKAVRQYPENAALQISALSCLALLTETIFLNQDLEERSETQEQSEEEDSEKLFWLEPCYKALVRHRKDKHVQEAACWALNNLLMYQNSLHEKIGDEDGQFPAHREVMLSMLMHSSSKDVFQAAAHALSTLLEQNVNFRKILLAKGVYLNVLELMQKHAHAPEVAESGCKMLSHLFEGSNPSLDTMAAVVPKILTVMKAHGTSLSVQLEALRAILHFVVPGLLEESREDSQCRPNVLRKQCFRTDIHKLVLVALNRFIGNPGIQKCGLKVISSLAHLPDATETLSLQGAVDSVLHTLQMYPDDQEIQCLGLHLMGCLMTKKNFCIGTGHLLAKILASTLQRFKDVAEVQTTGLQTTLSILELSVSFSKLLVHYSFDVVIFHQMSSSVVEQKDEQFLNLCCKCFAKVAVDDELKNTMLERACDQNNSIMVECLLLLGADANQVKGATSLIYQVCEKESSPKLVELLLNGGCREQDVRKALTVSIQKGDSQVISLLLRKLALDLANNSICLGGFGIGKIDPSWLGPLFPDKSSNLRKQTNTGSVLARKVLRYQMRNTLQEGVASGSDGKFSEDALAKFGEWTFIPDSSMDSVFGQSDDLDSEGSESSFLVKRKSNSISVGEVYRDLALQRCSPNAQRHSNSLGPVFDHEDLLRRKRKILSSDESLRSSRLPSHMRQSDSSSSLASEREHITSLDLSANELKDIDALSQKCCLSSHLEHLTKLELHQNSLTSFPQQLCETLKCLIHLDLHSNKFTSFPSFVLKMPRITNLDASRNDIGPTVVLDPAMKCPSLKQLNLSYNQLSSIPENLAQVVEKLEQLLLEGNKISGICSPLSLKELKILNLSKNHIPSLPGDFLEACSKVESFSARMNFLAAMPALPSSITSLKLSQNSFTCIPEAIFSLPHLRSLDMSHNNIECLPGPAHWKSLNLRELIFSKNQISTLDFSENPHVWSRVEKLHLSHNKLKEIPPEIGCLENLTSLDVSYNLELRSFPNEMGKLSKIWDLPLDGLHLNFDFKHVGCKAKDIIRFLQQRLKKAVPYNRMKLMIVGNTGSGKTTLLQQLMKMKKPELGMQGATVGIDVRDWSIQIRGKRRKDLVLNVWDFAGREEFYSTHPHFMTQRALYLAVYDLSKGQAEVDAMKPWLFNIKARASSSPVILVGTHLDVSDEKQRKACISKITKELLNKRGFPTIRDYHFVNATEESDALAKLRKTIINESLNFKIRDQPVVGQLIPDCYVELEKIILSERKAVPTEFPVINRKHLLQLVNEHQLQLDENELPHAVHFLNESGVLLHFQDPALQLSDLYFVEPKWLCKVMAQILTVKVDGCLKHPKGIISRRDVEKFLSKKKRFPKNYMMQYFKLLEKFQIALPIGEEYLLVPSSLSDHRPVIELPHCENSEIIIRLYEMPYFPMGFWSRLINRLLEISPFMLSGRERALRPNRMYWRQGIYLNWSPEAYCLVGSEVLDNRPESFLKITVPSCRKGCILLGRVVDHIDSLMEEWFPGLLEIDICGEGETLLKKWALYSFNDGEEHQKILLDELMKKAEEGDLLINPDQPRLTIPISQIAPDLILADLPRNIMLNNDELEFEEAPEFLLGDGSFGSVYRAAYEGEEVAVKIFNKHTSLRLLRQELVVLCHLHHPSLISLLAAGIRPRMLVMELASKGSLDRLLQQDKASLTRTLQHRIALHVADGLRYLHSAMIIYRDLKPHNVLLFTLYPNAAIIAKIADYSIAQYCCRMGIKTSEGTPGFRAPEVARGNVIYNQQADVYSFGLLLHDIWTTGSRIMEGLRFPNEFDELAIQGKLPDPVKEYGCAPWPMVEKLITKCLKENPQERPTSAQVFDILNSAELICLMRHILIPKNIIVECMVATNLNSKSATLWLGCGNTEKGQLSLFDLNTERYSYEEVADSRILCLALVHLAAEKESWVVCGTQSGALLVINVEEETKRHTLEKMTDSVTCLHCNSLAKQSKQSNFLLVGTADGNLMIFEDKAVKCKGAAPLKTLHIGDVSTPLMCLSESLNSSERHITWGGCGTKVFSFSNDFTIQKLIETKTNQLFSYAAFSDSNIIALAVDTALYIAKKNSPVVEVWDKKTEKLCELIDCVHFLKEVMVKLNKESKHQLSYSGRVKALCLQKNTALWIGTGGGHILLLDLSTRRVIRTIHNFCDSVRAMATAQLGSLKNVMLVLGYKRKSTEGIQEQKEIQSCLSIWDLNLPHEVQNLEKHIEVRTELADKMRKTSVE

As a reminder, the IC50 is the concentration needed to halve the response being measured. Turning to `CNc1nc(Nc2ccc(C(=O)N3CCN(CCOCCOCCSC(C)(C)[C@H](NC(=O)C4(F)CC4)C(=O)N4C[C@H](O)C[C@H]4C(=O)NCc4ccc(-c5scnc5C)cc4)CC3)cc2OC)ncc1Cl` [SD75, (2S,4R)-1-((R)-3-((2-(2-(2-(4-(4-((5-chloro-4-(methylamino)pyrimidin-2-yl)amino)-3-methoxybenzoyl)piperazin-1-yl)ethoxy)ethoxy)ethyl)thio)-2-(1-fluorocyclopropane-1-carboxamido)-3-methylbutanoyl)-4-hydroxy-N-(4-(4-methylthiazol-5-yl)benzyl)pyrrolidine-2-carboxamide], the “Dmax on G2019S MEFs” value on LRRK2^G2019S [1] (24 h treatment) is 43%. The “T1/2 of LRRK2^G2019S degradation” value at LRRK2^G2019S [2] (time course at 1000 nM) is on record as 1.1 h. Besides, the IC50 on LRRK2 (live HEK293 cells) was 1.8 µM; on LRRK2 (permeabilized HEK293 cells), 0.78 µM. Also, the “IC50 ratio IC50, per/IC50, live (LRRK2 engagement)” value at LRRK2 (permeabilized vs live mode) worked out at 0.43.

Broadly, the DC50 is the concentration at which degradation of the target reaches its halfway point. `CNc1nc(Nc2ccc(C(=O)N3CCN(C[C@H]4CC[C@H](CSC(C)(C)[C@H](NC(=O)C5(F)CC5)C(=O)N5C[C@H](O)CC5C(=O)NCc5ccc(-c6scnc6C)cc5)CC4)CC3)cc2OC)ncc1Cl` (stereo partly drawn) [XL01126, (2S,4R)-1-((R)-3-((((1R,4R)-4-((4-(4-((5-chloro-4-(methylamino)pyrimidin-2-yl)amino)-3-methoxybenzoyl)piperazin-1-yl)methyl)cyclohexyl)methyl)thio)-2-(1-fluorocyclopropane-1-carboxamido)-3-methylbutanoyl)-4-hydroxy-N-(4-(4-methylthiazol-5-yl)benzyl)pyrrolidine-2-carboxamide]: at LRRK2^G2019S [1] (4 h treatment), the DC50 was found to be 0.014 µM and the “Dmax on G2019S MEFs” value is 80-90%. Also, the “T1/2 of LRRK2^G2019S degradation” value on LRRK2^G2019S [2] (time course at 300 nM) was found to be 0.6 h. For the same compound, the IC50 at LRRK2 (live HEK293 cells) was determined as 1.4 µM. For the same compound, on LRRK2 (permeabilized HEK293 cells), the “LRRK2 tracer displacement (in words)” value is listed as “poor displacement”.

What is called Dmax is the largest share of the target that was removed. Higher therefore signals deep degradation. As to `CNc1nc(Nc2ccc(C(=O)N3CCN(C[C@H]4CC[C@@H](CSC(C)(C)[C@H](NC(=O)C5(F)CC5)C(=O)N5C[C@H](O)CC5C(=O)NCc5ccc(-c6scnc6C)cc5)CC4)CC3)cc2OC)ncc1Cl` (stereo partly shown) [XL01134], at LRRK2^G2019S [1] (4 h treatment), it took 0.007 µM to reach half-maximal degradation (DC50) and the “Dmax on G2019S MEFs” value amounted to 78%. Also, at LRRK2^G2019S [2] (time course at 300 nM), the greatest degradation seen (Dmax) at 0.3 µM was 82% and the “T1/2 of LRRK2^G2019S degradation” value is reported as 1.4 h. On LRRK2 (live HEK293 cells), the half-maximal inhibitory concentration (IC50) came out at 2.2 µM. Besides, on LRRK2 (permeabilized HEK293 cells), the half-inhibitory concentration (IC50) is 2 µM.
